“Also recorded” adds a separate entry of the source.
Assays:
[1] = target: T1, maize endosperm ADP-glucose pyrophosphorylase (AGPase) variant BT2-TI/SH2, small subunit BT2 with Thr462 to Ile (TI, SEQ ID NO:2) complexed with wild type SH2 (Zea mays, UniProt P55241+Q947C0, T462I); assay: Kinetic and allosteric characterization of purified recombinant AGPase, forward direction (BT2-TI/SH2); assay type: biochemical
T1 sequence (Q947C0 1-475 T462I): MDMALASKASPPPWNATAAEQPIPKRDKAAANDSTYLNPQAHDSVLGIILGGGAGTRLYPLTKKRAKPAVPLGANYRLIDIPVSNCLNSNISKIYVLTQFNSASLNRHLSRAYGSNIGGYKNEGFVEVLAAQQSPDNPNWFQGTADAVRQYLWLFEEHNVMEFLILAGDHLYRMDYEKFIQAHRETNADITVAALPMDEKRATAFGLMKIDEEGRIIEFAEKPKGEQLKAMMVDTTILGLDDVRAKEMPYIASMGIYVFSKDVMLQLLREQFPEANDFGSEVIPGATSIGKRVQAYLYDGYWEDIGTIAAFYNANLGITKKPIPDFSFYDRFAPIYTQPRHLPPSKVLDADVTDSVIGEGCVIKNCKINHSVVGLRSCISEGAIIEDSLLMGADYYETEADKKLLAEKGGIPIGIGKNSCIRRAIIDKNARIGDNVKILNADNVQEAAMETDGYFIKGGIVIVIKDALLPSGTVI
T1 sequence (P55241 46-516): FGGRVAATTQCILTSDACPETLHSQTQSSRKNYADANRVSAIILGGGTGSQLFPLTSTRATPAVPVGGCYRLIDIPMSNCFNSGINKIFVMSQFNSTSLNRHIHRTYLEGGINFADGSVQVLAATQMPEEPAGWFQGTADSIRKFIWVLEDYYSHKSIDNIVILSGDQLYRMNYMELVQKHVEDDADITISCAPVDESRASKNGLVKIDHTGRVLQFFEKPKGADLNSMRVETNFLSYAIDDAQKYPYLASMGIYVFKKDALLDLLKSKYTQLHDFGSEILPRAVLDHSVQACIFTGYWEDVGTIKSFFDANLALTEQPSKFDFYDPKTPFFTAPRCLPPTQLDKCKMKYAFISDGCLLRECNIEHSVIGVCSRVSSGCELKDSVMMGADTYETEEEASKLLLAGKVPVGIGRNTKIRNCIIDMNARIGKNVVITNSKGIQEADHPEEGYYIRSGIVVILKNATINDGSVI
Method: (§1) The following steps were conducted at 4° C.
(§2) The reaction was stopped by boiling for 2 min. […] NADH concentration was estimated by absorbance at 340 nm.
A mutant Bt2 library was created by error-prone PCR. The mutational load was ˜2 non-synonymous mutations per clone (Georgelis et al. 2007). The mutants were expressed in E. coli along with a wildtype Sh2 gene. Approximately 50,000 colonies were screened for glycogen production. Ten dark staining colonies were picked. The two darkest staining Bt2 mutants were sequenced. Both had the same non-synonymous mutation resulting in a change of amino acid 462 from threonine to isoleucine (TI). The threonine in that position is absolutely conserved among the higher plant small subunits (data not shown).
Ki's are expressed as mean (95% confidence interval). All other values are expressed as mean±standard deviation.

[2] = target: T2, maize endosperm ADP-glucose pyrophosphorylase (AGPase) BT2/SH2, wild type small subunit BT2 complexed with wild type large subunit SH2 (Zea mays, UniProt P55241+Q947C0); assay: Kinetic and allosteric characterization of purified recombinant AGPase, forward direction (BT2/SH2); assay type: biochemical; details: 1 mM ATP, 2 mM G-1-P, 2.5 mM 3-PGA, mean (95% confidence interval), read-out: Ki Pi
T2 sequence (Q947C0 1-475): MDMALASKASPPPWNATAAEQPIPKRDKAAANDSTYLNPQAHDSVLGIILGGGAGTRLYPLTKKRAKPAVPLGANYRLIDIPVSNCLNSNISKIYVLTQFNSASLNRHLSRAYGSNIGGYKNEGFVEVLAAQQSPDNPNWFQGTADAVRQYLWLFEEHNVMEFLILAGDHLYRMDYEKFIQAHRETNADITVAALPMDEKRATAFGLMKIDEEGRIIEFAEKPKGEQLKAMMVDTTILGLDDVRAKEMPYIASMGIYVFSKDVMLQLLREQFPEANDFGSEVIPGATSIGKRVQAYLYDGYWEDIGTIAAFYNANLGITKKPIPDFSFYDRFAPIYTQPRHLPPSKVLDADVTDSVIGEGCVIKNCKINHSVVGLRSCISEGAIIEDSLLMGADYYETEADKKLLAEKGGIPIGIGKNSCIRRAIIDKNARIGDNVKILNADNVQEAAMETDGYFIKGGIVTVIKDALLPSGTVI
T2 sequence (P55241 46-516): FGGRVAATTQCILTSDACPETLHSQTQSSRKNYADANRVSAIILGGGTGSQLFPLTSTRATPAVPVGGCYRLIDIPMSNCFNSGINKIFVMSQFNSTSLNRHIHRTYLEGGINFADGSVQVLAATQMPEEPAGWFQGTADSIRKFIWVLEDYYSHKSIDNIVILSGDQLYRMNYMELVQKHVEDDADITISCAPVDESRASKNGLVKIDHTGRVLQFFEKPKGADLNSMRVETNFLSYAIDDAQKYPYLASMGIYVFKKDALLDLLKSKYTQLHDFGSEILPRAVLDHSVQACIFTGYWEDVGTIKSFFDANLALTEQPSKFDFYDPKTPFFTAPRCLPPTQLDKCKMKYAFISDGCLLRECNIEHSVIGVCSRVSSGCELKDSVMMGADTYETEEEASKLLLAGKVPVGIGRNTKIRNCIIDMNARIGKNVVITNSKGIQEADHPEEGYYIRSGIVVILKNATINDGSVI
Method: as §1, §2
(§3) All other values are expressed as mean±standard deviation.

[3] = target: ADP-glucose pyrophosphorylase (AGPase) variant MP-TI/SH2, maize/potato mosaic small subunit MP with the TI mutation (threonine to isoleucine at position …); assay: Kinetic and allosteric characterization of purified recombinant AGPase, forward direction (MP-TI/SH2); assay type: biochemical, maize (Zea mays) / potato tuber; details: 1 mM ATP, 2 mM G-1-P, 2.5 mM 3-PGA, mean (95% confidence interval), read-out: Ki Pi
Method: as §1, §2, §3

[4] = target: ADP-glucose pyrophosphorylase (AGPase) MP/SH2, mosaic small subunit MP (first 200 amino acids of maize BT2 and last 275 amino acids of potato tuber small …)
Method: AGPase was desalted by using Zeba Micro Desalt Spin Columns (Pierce) before assaying. AGPase was exchanged into 50 mM HEPES, 5 mM MgCl2, 0.5 mM EDTA and 0.5 mg/mL BSA (for stability).
The reaction was stopped by boiling for 2 min. PPi was estimated by coupling the reaction to a reduction in NADH concentration using 300 μl of coupling reagent. The coupling reagent contained 25 mM imidazole pH 7.4, 4 mM MgCl2, 1 mM EDTA, 0.2 mM NADH, 0.725U aldolase, 0.4U triose phosphate isomerase, 0.6U glycerophosphate dehydrogenase, 1 mM fructose 6-phosphate and 0.8 μg of pyrophosphate dependent phosphofructokinase (PPi-PFK). […] NADH concentration was estimated by absorbance at 340 nm. PPi concentration was calculated by a standard curve developed by using various amounts of PPi instead of AGPase. […] The kinetic constants of AGPase were calculated by Prism 4.0 (Graph Pad, San Diego Calif.).
All other values are expressed as mean±standard deviation. The specific activity of AGPase in the absence of 3-PGA is expressed as a percentage of the specific activity in the presence of 10 mM of 3-PGA (mean±standard error).

E. coli cells = assay: Glycogen produced by E. coli cells expressing AGPase subunits; assay type: cell-based; details: subunit expressed with SH2 or alone (homotetramer)
From the text: A bacterial expression system (Iglesias et al., 1993) allowed us to randomly mutagenize maize endosperm AGPase genes and score AGPase activity in a fast and efficient way by exposing plates to iodine vapors as described below. The E. coli system is ideal for studying plant AGPases for a number of reasons discussed in Georgelis et al. (2007).
Glycogen synthesis was detected by production of brown staining colonies following exposure to iodine vapors. […] (Govons et al., 1969). The colonies were exposed to iodine vapors for 1 min. […] AGPase variants staining darker than wildtype were selected for further study.
Glycogen quantitation was performed by phenol reaction (Hanson and Phillips, 1981). In brief, glycogen was extracted from 1.6 ml of E. coli cells (OD600=2.0) grown in LB containing 2% w/v glucose by boiling for 3 hours in 50% w/v KOH. Glycogen was then precipitated by adding ethanol to 70% v/v and centrifuging at 10000×g for 10 min. After pellet drying, 200 μl de-ionized water, 200 μl of 5% w/v phenol and 1 mL of concentrated sulfuric acid were added. Glycogen was estimated by the absorbance at 488 nm.

maize endosperm AGPase = assay: Kinetic characterization of purified recombinant AGPase variants, forward direction; assay type: biochemical; details: compared to BT2/SH2
Method: as §1, §2, §3

SH2 = target: T3, SH2 (Zea mays, UniProt P55241); assay: Yeast two hybrid, quantitative β-galactosidase assay of subunit-subunit interactions; assay type: cell-based, maize; details: SH2 as bait, small subunit as prey; listed as TI
T3 construct: expressed in transfected cells
T3 sequence (P55241 46-516): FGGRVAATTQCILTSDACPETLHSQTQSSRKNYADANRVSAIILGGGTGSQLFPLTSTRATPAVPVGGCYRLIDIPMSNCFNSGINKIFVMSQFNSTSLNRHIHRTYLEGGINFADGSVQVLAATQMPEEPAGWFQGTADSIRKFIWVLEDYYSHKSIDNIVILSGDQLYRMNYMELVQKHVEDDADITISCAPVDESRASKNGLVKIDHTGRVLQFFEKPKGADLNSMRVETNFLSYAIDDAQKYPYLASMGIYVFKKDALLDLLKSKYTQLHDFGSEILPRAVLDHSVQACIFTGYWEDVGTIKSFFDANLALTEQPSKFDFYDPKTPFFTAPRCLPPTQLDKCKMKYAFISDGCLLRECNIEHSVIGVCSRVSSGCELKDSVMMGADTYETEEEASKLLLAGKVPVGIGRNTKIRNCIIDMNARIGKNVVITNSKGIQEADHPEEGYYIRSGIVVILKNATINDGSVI
Method: Yeast transformations and a β-galactosidase assay were conducted as described by Greene and Hannah (1998b). The only modification was the use of pGBKT7 and pGADT7 as vectors for the bait and the prey respectively. pGBKT7-53 and pGADT7-T plasmids were used as a positive control.

**Q.** What does the source list for `O=P(O)(O)O` [Pi, inorganic phosphate]?
**A.** Ki ([1]; BT2-TI/SH2, 1 mM ATP, 2 mM G-1-P, 2.5 mM 3-PGA, mean (95% confidence interval), read-out: Ki Pi): 4.07 mM; Ki for Pi (compared with BT2/SH2, in words) ([1]; BT2-TI/SH2 versus BT2/SH2): indistinguishable from BT2/SH2; Ki [2]: 2.32 mM; Ki [3]: 5.87 mM; affinity for Pi (in words) ([4]; MP/SH2 compared to BT2/SH2): decreased affinity for Pi; also recorded: a lower affinity for the inhibitor Pi; Ki ([4]; read-out: Ki Pi, MP/SH2, 1 mM ATP, 2 mM G-1-P, 2.5 mM 3-PGA, mean (95% confidence interval)): 6.61 mM

B1: MP-TI: MP mosaic small subunit with the amino acid change of TI introduced (protein)
chain: MDMALASKASPPPWNATAAEQPIPKRDKAAANDSTYLNPQAHDSVLGIILGGGAGTRLYPLTKKRAKPAVPLGANYRLIDIPVSNCLNSNISKIYVLTQFNSASLNRHLSRAYGSNIGGYKNEGFVEVLAAQQSPDNPNWFQGTADAVRQYLWLFEEHNVMEFLILAGDHLYRMDYEKFIQAHRETNADITVAALPMDEKRATAFGLMKIDEEGRIIEFAEKPQGEQLQAMKVDTTILGLDDKRAKEMPFIASMGIYVISKDVMLNLLRDKFPGANDFGSEVIPGATSLGMRVQAYLYDGYWEDIGTIEAFYNANLGITKKPVPDFSFYDRSAPIYTQPRYLPPSKMLDADVTDSVIGEGCVIKNCKIHHSVVGLRSCISEGAIIEDSLLMGADYYETDADRKLLAAKGSVPIGIGKNCHIKRAIIDKNARIGDNVKIINKDNVQEAARETDGYFIKSGIVIVIKDALIPSGIII
modifications: zea mays MP-TI protein
notes: MP mosaic small subunit with the amino acid change of TI introduced
**Q.** Which “glycogen produced by E. coli cells” value (E. coli cells) does the source give for B1 here?
**A.** yielded an equal amount of glycogen as MP/SH2

B2: BT2-TI: BT2 small subunit with change of amino acid 462 from threonine to isoleucine (protein)
chain: MDMALASKASPPPWNATAAEQPIPKRDKAAANDSTYLNPQAHDSVLGIILGGGAGTRLYPLTKKRAKPAVPLGANYRLIDIPVSNCLNSNISKIYVLTQFNSASLNRHLSRAYGSNIGGYKNEGFVEVLAAQQSPDNPNWFQGTADAVRQYLWLFEEHNVMEFLILAGDHLYRMDYEKFIQAHRETNADITVAALPMDEKRATAFGLMKIDEEGRIIEFAEKPKGEQLKAMMVDTTILGLDDVRAKEMPYIASMGIYVFSKDVMLQLLREQFPEANDFGSEVIPGATSIGKRVQAYLYDGYWEDIGTIAAFYNANLGITKKPIPDFSFYDRFAPIYTQPRHLPPSKVLDADVTDSVIGEGCVIKNCKINHSVVGLRSCISEGAIIEDSLLMGADYYETEADKKLLAEKGGIPIGIGKNSCIRRAIIDKNARIGDNVKILNADNVQEAAMETDGYFIKGGIVIVIKDALLPSGTVI
modifications: zea mays BT2 protein
notes: BT2 small subunit with change of amino acid 462 from threonine to isoleucine
**Q.** B2 was tested. Which “kcat lower than kcat of BT2/SH2” value (maize endosperm AGPase) did it give?
**A.** 30%

**Q.** What about the “strength of subunit-subunit interactions” value (SH2) of the same molecule?
**A.** did not increase the strength of subunit-subunit interactions; also recorded: does not strengthen the subunit-subunit interactions

From patent publication US8536407B2, “Heat resistant plants and plant tissues comprising a variant adenosine diphosphate glucose pyrophosphorylase small subunit protein and methods of use thereof” (University of Florida Research Foundation, Inc., priority 2008, dated 2013)
